# Reference: paper PMC4004761 (Journal of medicinal chemistry, 2013)
# Like-named read-outs stand apart in the source and are kept apart here. Marks after values point to notes of the source that are not given here.
# Experiments:
# [1] = tested on: kindled seizures (seizure score, after-discharge duration); conditions: for Effect in rat kindling model: Figure 1
# [2] = tested on: maximal electroshock seizure (hind-limb tonic extension); conditions: mouse
# [3] = tested on: maximal electroshock seizure (hind-limb tonic extension); conditions: in vivo, cited from earlier work
# [4] = tested on: sound-induced seizures; test: animal or person; conditions: Mus musculus, ip, read-out: Audiogenic seizure ED50
# [5] = molecular target: rat Nav1.2 (Rattus norvegicus, UniProt P04775); test: Voltage-gated Na+ channel whole-cell patch-clamp in CHL1610 cells; type: cell-based
# [6] = molecular target: kappa-opioid receptor (Homo sapiens, UniProt P41145); test: Cerep receptor-binding panel: kappa opioid; conditions: read-out: Inhibition, kappa-opioid receptor
# [7] = molecular target: rat KCNQ2 (Rattus norvegicus, UniProt O88943); test: KCNQ2 whole-cell patch-clamp, M-current protocol; type: cell-based
# [8] = tested on: kindled seizures (seizure score, after-discharge duration); conditions: cited from earlier work
# [9] = tested on: maximal electroshock seizure (hind-limb tonic extension); conditions: at 2 h (time of peak effect); cited from earlier work
# [10] = tested on: chemically-induced forelimb clonic seizures; conditions: mouse, cited from earlier work
# Sequence of rat KCNQ2 (O88943 whole entry): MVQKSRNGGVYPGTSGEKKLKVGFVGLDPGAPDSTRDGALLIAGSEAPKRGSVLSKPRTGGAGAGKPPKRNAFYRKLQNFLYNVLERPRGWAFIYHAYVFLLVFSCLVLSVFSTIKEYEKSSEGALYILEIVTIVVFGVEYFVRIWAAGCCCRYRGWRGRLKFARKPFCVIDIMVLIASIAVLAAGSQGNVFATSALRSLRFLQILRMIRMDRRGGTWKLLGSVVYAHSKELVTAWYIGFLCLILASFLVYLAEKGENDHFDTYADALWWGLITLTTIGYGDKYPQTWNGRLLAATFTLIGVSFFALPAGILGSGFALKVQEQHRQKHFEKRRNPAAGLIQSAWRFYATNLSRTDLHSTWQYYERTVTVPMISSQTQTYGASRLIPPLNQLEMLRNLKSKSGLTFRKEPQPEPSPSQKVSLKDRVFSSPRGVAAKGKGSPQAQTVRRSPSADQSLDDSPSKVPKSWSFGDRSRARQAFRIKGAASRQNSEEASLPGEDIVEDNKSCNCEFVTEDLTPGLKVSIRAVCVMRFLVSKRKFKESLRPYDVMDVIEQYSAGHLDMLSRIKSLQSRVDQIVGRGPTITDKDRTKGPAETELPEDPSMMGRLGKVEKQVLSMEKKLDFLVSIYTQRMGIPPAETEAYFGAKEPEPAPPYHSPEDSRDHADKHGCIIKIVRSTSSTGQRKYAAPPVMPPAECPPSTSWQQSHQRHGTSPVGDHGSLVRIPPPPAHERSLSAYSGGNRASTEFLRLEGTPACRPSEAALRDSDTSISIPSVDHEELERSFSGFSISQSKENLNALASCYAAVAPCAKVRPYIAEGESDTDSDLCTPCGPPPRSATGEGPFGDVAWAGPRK
# Sequence of rat Nav1.2 (P04775 whole entry): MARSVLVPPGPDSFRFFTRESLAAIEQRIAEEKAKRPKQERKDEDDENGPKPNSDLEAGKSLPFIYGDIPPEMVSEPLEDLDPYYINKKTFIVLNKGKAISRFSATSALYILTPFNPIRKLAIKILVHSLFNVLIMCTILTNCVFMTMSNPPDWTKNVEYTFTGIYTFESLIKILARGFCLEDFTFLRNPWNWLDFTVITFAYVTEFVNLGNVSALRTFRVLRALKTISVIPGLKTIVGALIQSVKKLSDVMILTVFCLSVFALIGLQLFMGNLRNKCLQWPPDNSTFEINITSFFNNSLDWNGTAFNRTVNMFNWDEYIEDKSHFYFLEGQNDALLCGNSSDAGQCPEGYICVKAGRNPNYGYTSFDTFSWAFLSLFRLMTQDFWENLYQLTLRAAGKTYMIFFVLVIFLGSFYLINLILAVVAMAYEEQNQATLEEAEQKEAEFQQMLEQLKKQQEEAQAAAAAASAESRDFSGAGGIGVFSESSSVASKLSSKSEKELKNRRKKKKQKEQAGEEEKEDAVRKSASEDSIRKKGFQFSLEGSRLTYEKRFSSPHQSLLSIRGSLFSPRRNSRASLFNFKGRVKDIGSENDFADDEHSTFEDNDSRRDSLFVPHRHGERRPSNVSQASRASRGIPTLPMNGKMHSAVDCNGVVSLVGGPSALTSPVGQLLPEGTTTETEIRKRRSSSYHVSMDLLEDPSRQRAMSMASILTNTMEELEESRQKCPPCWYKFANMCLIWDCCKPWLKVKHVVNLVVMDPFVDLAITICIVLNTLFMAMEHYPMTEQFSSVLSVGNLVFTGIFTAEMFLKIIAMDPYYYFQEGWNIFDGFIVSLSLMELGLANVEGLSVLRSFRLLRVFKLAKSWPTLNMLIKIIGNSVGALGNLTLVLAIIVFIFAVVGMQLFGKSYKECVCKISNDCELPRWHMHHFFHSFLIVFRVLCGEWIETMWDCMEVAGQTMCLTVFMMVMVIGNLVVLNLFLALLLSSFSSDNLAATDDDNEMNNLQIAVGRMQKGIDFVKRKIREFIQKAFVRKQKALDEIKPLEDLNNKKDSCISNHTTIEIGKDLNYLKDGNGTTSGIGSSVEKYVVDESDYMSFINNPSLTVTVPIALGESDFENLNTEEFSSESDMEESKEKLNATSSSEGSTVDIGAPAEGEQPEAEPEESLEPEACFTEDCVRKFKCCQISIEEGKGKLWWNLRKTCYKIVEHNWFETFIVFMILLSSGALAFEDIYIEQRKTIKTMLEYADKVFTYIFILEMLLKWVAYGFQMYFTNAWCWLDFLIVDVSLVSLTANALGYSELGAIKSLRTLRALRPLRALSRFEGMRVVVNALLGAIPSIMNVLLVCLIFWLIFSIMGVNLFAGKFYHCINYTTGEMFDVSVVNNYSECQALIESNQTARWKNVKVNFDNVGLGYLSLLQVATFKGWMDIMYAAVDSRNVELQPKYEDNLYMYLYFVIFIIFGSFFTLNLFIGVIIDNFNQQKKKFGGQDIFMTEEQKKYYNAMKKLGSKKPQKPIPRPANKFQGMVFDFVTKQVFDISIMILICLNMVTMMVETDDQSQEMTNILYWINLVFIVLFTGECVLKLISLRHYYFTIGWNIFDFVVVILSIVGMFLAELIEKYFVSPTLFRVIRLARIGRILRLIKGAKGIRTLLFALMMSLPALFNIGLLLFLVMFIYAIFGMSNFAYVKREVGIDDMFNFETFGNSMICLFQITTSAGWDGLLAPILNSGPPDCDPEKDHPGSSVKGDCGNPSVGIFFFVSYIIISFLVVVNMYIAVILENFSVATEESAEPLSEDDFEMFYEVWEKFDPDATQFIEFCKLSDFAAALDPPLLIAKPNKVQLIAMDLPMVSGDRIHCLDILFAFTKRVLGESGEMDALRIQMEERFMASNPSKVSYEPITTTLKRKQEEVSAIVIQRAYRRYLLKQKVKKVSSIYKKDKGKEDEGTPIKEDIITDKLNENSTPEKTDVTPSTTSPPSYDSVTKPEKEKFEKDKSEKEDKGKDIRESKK
# Sequence of kappa-opioid receptor (P41145 whole entry): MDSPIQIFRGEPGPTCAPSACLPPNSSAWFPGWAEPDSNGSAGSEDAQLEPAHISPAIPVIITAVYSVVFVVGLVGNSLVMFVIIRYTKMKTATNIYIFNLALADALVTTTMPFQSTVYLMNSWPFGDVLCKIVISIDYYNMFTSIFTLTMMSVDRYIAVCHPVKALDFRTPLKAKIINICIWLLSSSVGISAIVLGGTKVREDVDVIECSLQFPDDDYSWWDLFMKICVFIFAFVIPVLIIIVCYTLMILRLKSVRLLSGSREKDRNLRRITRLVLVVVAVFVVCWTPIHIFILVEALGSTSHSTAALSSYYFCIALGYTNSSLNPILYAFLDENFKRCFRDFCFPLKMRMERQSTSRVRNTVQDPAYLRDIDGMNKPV
smiles,measurement,setting,value
O=C1NC(=O)C(c2ccccc2)(c2ccccc2)N1 [phenytoin],Effect in rat kindling model,[1]; maximally effective dose,significantly suppressed seizure activity
"CN(C)S(=O)(=O)NCC1COc2ccccc2O1 (centres unmarked) [compound 7, N-((2,3-Dihydrobenzo[1,4]dioxin-2-yl)methyl)-N’,N’-dimethylsulfamide]","MES, po, effect (animals responding / animals tested)","[2]; 300 mg/kg po, 0.5 h",4/5
same,"MES, po, effect (animals responding / animals tested)","[2]; 300 mg/kg po, 2 h",0/5
"CC1(C)O[C@@H]2[C@@H](CO[C@@]3(COS(N)(=O)=O)OC(C)(C)O[C@@H]23)O1 [compound 1, topiramate]",Rats with complete protection,[1]; maximally effective dose,one out of eight
same,Effect in rat kindling model,[1]; maximally effective dose,not effective
same,Oral mouse MES ED50,[3],43.8 ^f mg/kg
same,"MES, po, effect (animals responding / animals tested)",[3]; mouse,"0.5, 2/5; 2, 4/5 ^l"
same,ED50,[4],4.2 mg/kg
COc1cccc2c1O[C@@H](CNS(N)(=O)=O)CO2 [10g],"MES, po, effect (animals responding / animals tested)","[2]; 100 mg/kg po, 0.5 h","0.5, 0/5; 2, 0/5 ^j"
same,"MES, po, effect (animals responding / animals tested)","[2]; 100 mg/kg po, 2 h","0.5, 0/5; 2, 0/5 ^j"
"NS(=O)(=O)NC[C@H]1COc2cc(Cl)ccc2O1 [compound 4, (2S)-(–)-N-((6-Chloro-2,3-dihydrobenzo[1,4]dioxin-2-yl)methyl)sulfamide]",Effect on after-discharge duration,"[1]; rat, i.p., p = 0.07",no statistically significant effect
same,Nav1.2 inhibition at −107 mV,[5]; at −107 mV,virtually no inhibition
same,inhibition at 10 µM,[6],45%
same,Increase in KCNQ2 current,"[7]; 300 μM, −50 mV, N = 5 cells",2.4 fold
same,Increase in decay kinetics,"[7]; 300 μM, −50 mV, N = 5 cells",2 fold
same,Increase in KCNQ2 current,[7]; 750 μM,4 fold
NS(=O)(=O)NC[C@H]1COc2c(Cl)cccc2O1 [10a],"MES, po, effect (animals responding / animals tested)","[2]; 100 mg/kg po, 0.5 h",0/5
same,"MES, po, effect (animals responding / animals tested)","[2]; 100 mg/kg po, 2 h",1/5
NCC1(CC(=O)O)CCCCC1 [gabapentin],Effect on Na+ channel activity,[5]; up to 300 μM,no effect
"NS(=O)(=O)NCc1csc2ccccc12 [compound 3, N-((benzo[b]thien-3-yl)methyl)sulfamide]",Rats with complete absence of seizure activity,"[8]; maximally effective dose, time of peak effect",six out of eight
same,Reduction of after-discharge duration,"[8]; rat, i.p., p < 0.01",64%
same,Rats with seizure score reduced from 5 to 0,"[8]; rat, i.p., p = 0.0001",six out of eight
same,Time of peak activity,"[8]; rat, i.p., sustained at 1 h",15 min
same,Rat MES oral ED50,[9],34 mg/kg
same,Oral mouse MES ED50,[3],119 ^c mg/kg
same,"MES, po, effect (animals responding / animals tested)","[3]; mouse, 100 mg/kg","0.5, 1/5; 2, 3/5"
same,ED50 vs s.c. Bic-induced forelimb clonic seizures,"[10]; ip, […]",156 mg/kg
same,ED50 vs s.c. PTZ-induced forelimb clonic seizures,"[10]; ip, […]",161 mg/kg
same,ED50 vs s.c. Pic-induced forelimb clonic seizures,"[10]; ip, […]",106 mg/kg
CCCCNS(N)(=O)=O [BuNHSO2NH2],Activity in the MES test,[3]; mouse,not active
NC(=O)N1c2ccccc2C=Cc2ccccc21 [carbamazepine],Effect in rat kindling model,[1]; maximally effective dose,significantly suppressed seizure activity
same,Doses giving protection similar to 4 (range of neurotoxic effects),[1]; rat kindling,> 26 mg/kg
NS(=O)(=O)NCC1Oc2ccc(Cl)cc2O1 (centres unmarked) [11b],"MES, po, effect (animals responding / animals tested)","[2]; 100 mg/kg po, 0.5 h","0.5, 0/5; 2, 0/5"
same,"MES, po, effect (animals responding / animals tested)","[2]; 100 mg/kg po, 2 h","0.5, 0/5; 2, 0/5"
CCCC(CCC)C(=O)O [valproic acid],Effect in rat kindling model,[1]; maximally effective dose,significantly suppressed seizure activity
same,Doses giving protection similar to 3 (range of neurotoxic effects),[1]; rat kindling,> 300 mg/kg
same,ED50 in chemically-induced seizures (comparators),[10],> 200 mg/kg
CCC1(C)CC(=O)NC1=O (centres unmarked) [ethosuximide],Effect in rat kindling model,[1]; maximally effective dose,not effective
CC[C@@H](C(N)=O)N1CCCC1=O [levetiracetam],ED50 in chemically-induced seizures (comparators),[10],> 540 mg/kg
NS(=O)(=O)NCc1ccccc1 [PhCH2NHSO2NH2],Mouse MES effect (animals protected / tested),[3]; 100 mg/kg,3/3
same,Mouse MES effect (animals protected / tested),[3]; 300 mg/kg,3/3
